Results as given in patent US12066439B2, “Methods for enhancing specificity and sensitivity of group a Streptococcus immunoassay” (Becton, Dickinson and Company, priority 2021, dated 2024).
Entries after “also recorded” stand apart in the source; their conditions may differ.

Legend:
[1] = test system: anti-Strep A polyclonal antibodies; test: Strep A lateral flow immunoassay (Veritor Strep A), false positive signal from porcine mucin samples; format: binding; conditions: for false positive signals from porcine mucin samples: agent added directly to the sample, 4x mucin standard (~2.5 mg/mL), FIGS. 5-6
Procedure: 2-N-butanoyl-D-glucosamide, or Bis-(2-(D-2-deoxy-glucosaminyl))-PEG3-amide were tested for their ability to inhibit or block the binding of the anti-Strep A polyclonal antibodies in the Strep A immunoassay (Veritor™ Strep A assay). Porcine mucin samples were used as a surrogate of human saliva sample, and were tested with an immunoassay test strip for specificity. Using an immunoassay device for detection of Strep A, the effect of 2-N-butanoyl-D-glucosamide, or Bis-(2-(D-2-deoxy-glucosaminyl))-PEG3-amide on the performance of Strep A assay was evaluated using 4× concentration of mucin standard (˜2.5 mg/mL) and Test Standard 1. […] Different concentrations of 2-N-butanoyl-D-glucosamide, or Bis-(2-(D-2-deoxy-glucosaminyl))-PEG3-amide in an immunoassay were evaluated for inhibition of Strep A false positive signals.
m-PEG4-glucosamine, m-PEG6-glucosamine, m-PEG10-glucosamine and m-PEG5000-glucosamine were tested for their ability to inhibit or block the binding of the anti-Strep A polyclonal antibodies in the Strep A immunoassay. […] Different concentrations of m-PEG4-glucosamine, m-PEG6-glucosamine, m-PEG10-glucosamine and m-PEG5000-glucosamine in an immunoassay were evaluated for inhibition of Strep A false positive signals.

[2] = test system: anti-Strep A polyclonal antibodies; test: Strep A lateral flow immunoassay (Veritor Strep A), sensitivity with sample containing Strep A antigen; format: binding; conditions: for sensitivity of the Strep A assay: agent mixed with sample containing Strep A antigen, FIG. 10
Procedure: FIGS. 1A-1C show the effect of N-propionyl-D-glucosamine on the sensitivity and false positivity of the Veritor™ Strep A assay when analyzing a test sample. The N-propionyl-D-glucosamine was added to the extraction reagent and mixed with porcine mucin, a surrogate of human mucin from saliva for specificity, or with Strep A extract for sensitivity.
2-N-butanoyl-D-glucosamide, or Bis-(2-(D-2-deoxy-glucosaminyl))-PEG3-amide were tested for their ability to inhibit or block the binding of the anti-Strep A polyclonal antibodies in the Strep A immunoassay (Veritor™ Strep A assay). Porcine mucin samples were used as a surrogate of human saliva sample, and were tested with an immunoassay test strip for specificity. Using an immunoassay device for detection of Strep A, the effect of 2-N-butanoyl-D-glucosamide, or Bis-(2-(D-2-deoxy-glucosaminyl))-PEG3-amide on the performance of Strep A assay was evaluated using 4× concentration of mucin standard (˜2.5 mg/mL) and Test Standard 1. Either 2-N-butanoyl-D-glucosamide, or Bis-(2-(D-2-deoxy-glucosaminyl))-PEG3-amide was added directly to the sample. Different concentrations of 2-N-butanoyl-D-glucosamide, or Bis-(2-(D-2-deoxy-glucosaminyl))-PEG3-amide in an immunoassay were evaluated for inhibition of Strep A false positive signals.

[3] = test system: Rabbit polyclonal antibodies for Group A Strep; conditions: previous studies, US 2013/0196337; cited from earlier work
[4] = test system: anti-Strep A polyclonal antibodies; test: Strep A lateral flow immunoassay (Veritor Strep A), false positive signal from saliva samples; format: binding; conditions: saliva from asymptomatic patients; FIGS. 1-4
Procedure: Saliva samples were collected from four asymptomatic patients and tested with an immunoassay test strip for specificity. Previous studies have reported that samples obtained from the mouth tissues, saliva, cheek and tongue of healthy control patients show high false positive rates for Strep A when assayed via a lateral flow immunoassay. See US20130196337A1.
N-propionyl-D-glucosamine was tested for its ability to inhibit or block the binding of the anti-Strep A polyclonal antibodies in the Strep A immunoassay. Saliva samples from four asymptomatic patients were obtained for testing. Using an immunoassay device for detection of Strep A, the four saliva samples were each treated with the extraction reagents (such as the extraction reagents in a commercially available BD Veritor™ Strep A kit) in the presence of N-propionyl-D-glucosamine, which was dried on the conjugate pad during the spraying of liquid conjugate on the conjugate pad (labeling zone). Different concentrations of N-propionyl-D-glucosamine in an immunoassay were evaluated for inhibition of Strep A false positive signals.

[5] = test system: anti-Strep A polyclonal antibodies; test: Strep A detection assay, agent added to extraction solution (GAS 1+2) without mucin; format: binding; conditions: no mucin, FIG. 11
[6] = agent added directly to the sample, Test Standard 1, FIGS. 5-6
[7] = high concentration in sample pad or conjugate pad dipping solution, FIG. 8
[8] = lower concentrations (zero to 12.5 mM tested) in conjugate pad dipping solution, FIG. 9
[9] = agent mixed with porcine mucin sample, FIG. 10

Q: Which results are given for `CCCC(=O)N[C@H]1C(O)O[C@H](CO)[C@@H](O)[C@@H]1O` (stereo partly drawn) [2-N-butanoyl-D-glucosamide]?
A: false positive signals from porcine mucin samples [1]: efficiently suppressed; overall sensitivity of the Veritor Strep A assay [2, 6]: did not significantly reduce

Q: For `CC(=O)N[C@H]1C(O)O[C@H](CO)[C@@H](O)[C@@H]1O` (stereo partly drawn) [N-acetyl-D-glucosamine], which assay sensitivity [3] is on record?
A: The assay sensitivity was “significant reduction”.

Q: What about the “assay specificity (interference by salivary proteins)” value [3] of the same molecule?
A: Its value is “can improve assay specificity”.

Q: For `CCC(=O)N[C@H]1C(O)O[C@H](CO)[C@@H](O)[C@@H]1O` (stereo partly drawn) [N-propionyl-D-glucosamine], which “false positive signals from saliva specimens” value [4] is on record?
A: The value was “efficiently suppressed”.

Q: What about the “overall sensitivity of the Veritor Strep A assay” value ([2]; FIG. 1 and FIG. 3) of the same molecule?
A: The value was “did not reduce”.

Q: What does the source list for “Bis-(2-(D-2-deoxy-glucosaminyl))-PEG3-amide”?
A: mucin induced false positive signal ([1]; added in sample, two lots of Strep A devices that previously showed mucin cross-reaction, FIG. 7): significantly reducing; false positive signal ([1]; added to conjugate pad dipping solution and/or sample pad dipping solution, FIG. 8): significantly reduced; false positive signals from porcine mucin samples [1]: efficiently suppressed; false positive signal caused by mucin [1, 7]: effectively eliminate; mucin cross-reaction [1, 8]: effectively eliminate; true sensitivity ([2]; added in sample, two lots of Strep A devices, FIG. 7): slightly inhibited; overall sensitivity of the Veritor Strep A assay [2, 6]: did not significantly reduce; true signal [2, 7]: inhibit; true sensitivity [2, 8]: without much impact

Q: With m-PEG4-glucosamine as the molecule, how does the mucin cross-reaction [1, 9] read?
A: The mucin cross-reaction was “effective in eliminating”.

Q: What about the “sensitivity of the Strep A assay” value [2] of the same molecule?
A: Its value is “without significant impact”.

Q: Which mucin cross-reaction [1, 9] does the source give for m-PEG6-glucosamine here?
A: Its mucin cross-reaction is “effective in eliminating”.

Q: And the “sensitivity of the Strep A assay” value [2]?
A: Its value is “without significant impact”.

Q: With m-PEG10-glucosamine as the molecule, how does the mucin cross-reaction [1, 9] read?
A: The mucin cross-reaction was “effective in eliminating”.

Q: And the “sensitivity of the Strep A assay” value [2]?
A: The value was “without significant impact”.

Q: Which results are given for m-PEG5000-glucosamine?
A: false positive signal when mucin is not present [5]: no any false positive signal was observed; false positive signal caused by mucin ([1]; agent added to sample, mucin present, FIG. 11): did not reduce the false positive signal caused by mucin, but instead increases the false positive signal; also recorded: does not reduce the false positive signal caused by mucin, but instead increases the false positive signal
